Data as given in patent US9452155B2, “Injectable antibiotic formulations and their methods of use” (BAYER NEW ZEALAND LTD, priority 2012, dated 2016).
Each block holds one compound with its values, some of them ahead of it.

What was measured:
[1] = 20° C.; cited from earlier work
[2] = assay type: physicochemical
Text: Thus the long term stability of PNT with triacetin (or other oily vehicles) is highly unexpected. […] After one month in accelerated stability the components of the composition appeared to degrade rapidly with a resulting colour change from an off-white to a dark yellow with dark brown sludge forming. The degradation components appeared to include a gas, resulting in the container swelling from the resultant pressure. Accordingly, the formulations described in CN 1517090 are not known to be storage stable.

[3] = cited from earlier work

SMILES: CC(=O)OCC(COC(C)=O)OC(C)=O [Triacetin]
viscosity [1]: approximately 23 mPas

chemical stability on storage in oily vehicles [2]: chemically unstable
SMILES: CC1(C)S[C@@H]2[C@H](NC(=O)Cc3ccccc3)C(=O)N2[C@H]1C(=O)O [benzylpenicillin]

SMILES: CCN(CC)CCOC(=O)[C@@H]1N2C(=O)[C@@H](NC(=O)Cc3ccccc3)[C@H]2SC1(C)C.I [penethamate hydroiodide]
time to peak serum levels (measured as dissociated penicillin G) ([3]; after injection (Friton 2003)): 3.76 h | share of the active drug present in its hydrolysed form (benzylpenicillin) at equilibrium ([3]; blood pH (7.2), after intramuscular administration): 91.8%

chemical stability on storage in oily vehicles [2]: chemically unstable | chemical stability when substituted for penethamate in the preferred formulation [2]: chemically unstable
SMILES: CC1(C)S[C@@H]2[C@H](NC(=O)Cc3ccccc3)C(=O)N2[C@H]1C(=O)O.CCN(CC)CCOC(=O)c1ccc(N)cc1 [procaine penicillin]
